Laboratory results taken from PubChem BioAssay AID2060507 (Molecular Pharmacology Branch, DTP, NCI, 2025).
“And” between values parts separate entries of the source, which are not always exact repeats. Identical values can stand only once.

System: 519858-162-T-J1-PDC complex spheroid viability
Assay: Anticancer human tumor 519858-162-T-J1-PDC patient-derived colon adenocarcinoma cell line growth inhibition [GQUAD]
Conditions: for viability, T/C: stronger effect = lower value
Source text: DNA G-quadruplex Stabilizer Agents in Combinations in Complex Spheroids
A high-throughput screen of multi-cell type tumor spheroids was designed to identify active combinations of DNA G-quadruplex stabilizer agents and targeted small molecules. Complex spheroids include a stromal component modeled by human endothelial cells (HUVEC) and fibroblasts modeled by human mesenchymal stem cells (MSCs). The concentration ranges selected for each drug and investigational agent were based upon clinically achievable concentrations if the clinical Cmax of the agent was known.
Compounds. The drugs and investigational agents: pidnarulex (CX-5461; NSC782164), APTO-253 (NSC789042), BRACO-19 (NSC847499), peposertib (NSC802822), ceralasertib (NSC780249), elimusertib (NSC800525), camonsertib (NSC841442), AZD-1390 (NSC803789), olaparib (NSC753686), talazoparib (NSC767125), ART-558 (NSC835418), sotorasib (NSC818433), MRTX-1133 (NSC836407), SN-38 (NSC673596), topotecan (NSC609699), etoposide (NSC141540), doxorubicin (NSC123127), gemcitabine (NSC613327), 5-fluorouracil (NSC19893), paclitaxel (NSC125973), vemurafenib (NSC761431), panobinostat (NSC761190), R-306465 (JNJ-16241199; NSC773264), adavosertib (NSC754352), TP-3654 (NSC805149), carboplatin (NSC241240), KSQ-4279 (NSC840948), and staurosporine (NSC755774) were obtained from the National Cancer Institute (NCI) Developmental Therapeutics Program Chemical Repository (34). The FDA-approved anticancer drug set is available from the NCI Developmental Therapeutics Program. […] The stock solutions were prepared in dimethyl sulfoxide (DMSO, Sigma-Aldrich, St. Louis, MO, cat. D2650) at 800-fold the tested concentration and stored at -70 degrees C prior to their use. All drugs and investigational agents were tested over a range starting from a high concentration at or near the clinical Cmax and decreasing in half-log increments. If the clinical Cmax for an agent had not been determined, the highest concentration tested was 10 microM.
2.3 Cell Culture. All cells were maintained in an incubator at 37 degrees C and 5% CO2 with 95% humidity. The PDC lines were cultured according to standard operating procedures established by the NCI PDMR. All PDCs were thawed and cultured in Matrigel-coated flasks prepared with a working solution of 1X Ham's F-12 nutrient mix, without supplementation (Invitrogen, cat. 11765054), 100 U/mL penicillin-streptomycin (Invitrogen, cat. 15140122), and 2.5% Matrigel (Corning Inc., cat. 354248) for the first three passages. The 857933-349-R-J2-PDC line was cultured in 6C/Colon 1B media, which includes advanced DMEM/F-12 (Thermo Fisher Scientific, cat. 12634028), 10 mM HEPES (Thermo Fisher Scientific, cat. 15630080), 1X GlutaMAX supplement (Thermo Fisher Scientific, cat. 35050061), 0.1 mg/mL primocin (InvivoGen, cat. ant-pm-2), 10% defined fetal bovine serum, heat inactivated (HyClone Laboratories Inc., cat. SH30070.03HI), 50% L-WRN conditioned media (ATCC, cat. CRL-3276), 1.25 mM N-Acetyl-L-cysteine (Sigma-Aldrich, cat. A9165), 10 mM nicotinamide (Sigma-Aldrich, cat. N0636), 1X B-27 supplement (Thermo Fisher Scientific, cat. 17504044), 1X N-2 supplement (Thermo Fisher Scientific, cat. 17502048), 10 microM Y-27632 dihydrochloride (Tocris Bioscience, cat. 1254), and 50 ng/mL human EGF recombinant protein (Thermo Fisher Scientific, cat. PHG0311). The 485176-168-R4-J1-PDC line was cultured in Panc media, which includes all 6C/Colon 1B media components plus 100 ng/mL human FGF-10 (Thermo Fisher Scientific, cat. 100-26), 500 nM SB-431542 (Selleckchem, cat. S1067), and gastrin (Tocris, cat. 3006).
[…]
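Further: spheroids exposed to compounds for 7 days.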
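Wherever viability, T/C is given: 100% = DMSO vehicle control viability.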

Q: With Cn1ncnc1[C@H]1c2n[nH]c(=O)c3cc(F)cc(c23)N[C@@H]1c1ccc(F)cc1 + CN(C)c1ccc(Nc2c3ccc(NC(=O)CCN4CCCC4)cc3nc3cc(NC(=O)CCN4CCCC4)ccc23)cc1 as the molecule, how does the IC50 (curve of first compound, second compound 0.0316 µM) read?
A: > 316 nM

Q: And the IC50 (curve of first compound, second compound 0.1 µM)?
A: > 316 nM

Q: And the IC50 (curve of first compound, second compound 0.316 µM)?
A: > 316 nM

Q: And the IC50 (curve of first compound, second compound 1 µM)?
A: > 316 nM

Q: What about the IC50 (curve of first compound, second compound 3.16 µM) of the same molecule?
A: > 316 nM

Q: And the IC50 (curve of first compound, second compound 10 µM)?
A: > 316 nM

Q: And the viability, T/C (second compound 0.0316 µM, first compound 0.000999 µM)?
A: 74.5%

Q: What about the viability, T/C (second compound 0.0316 µM, first compound 0.00316 µM) of the same molecule?
A: 119%

Q: What about the viability, T/C (second compound 0.0316 µM, first compound 0.00999 µM) of the same molecule?
A: 146%

Q: What about the viability, T/C (second compound 0.0316 µM, first compound 0.0316 µM) of the same molecule?
A: 66.9%

Q: What about the viability, T/C (second compound 0.0316 µM, first compound 0.0999 µM) of the same molecule?
A: 79.6%

Q: What about the viability, T/C (second compound 0.0316 µM, first compound 0.316 µM) of the same molecule?
A: 118%

Q: What about the viability, T/C (second compound 0.1 µM, first compound 0.000999 µM) of the same molecule?
A: 96%

Q: What about the viability, T/C (second compound 0.1 µM, first compound 0.00316 µM) of the same molecule?
A: 109%

Q: And the viability, T/C (second compound 0.1 µM, first compound 0.00999 µM)?
A: 79%

Q: And the viability, T/C (second compound 0.1 µM, first compound 0.0316 µM)?
A: 103%

Q: And the viability, T/C (second compound 0.1 µM, first compound 0.0999 µM)?
A: 104%

Q: What about the viability, T/C (second compound 0.1 µM, first compound 0.316 µM) of the same molecule?
A: 105%

Q: What about the viability, T/C (second compound 0.316 µM, first compound 0.000999 µM) of the same molecule?
A: 94.4%

Q: What about the viability, T/C (second compound 0.316 µM, first compound 0.00316 µM) of the same molecule?
A: 139%

Q: What about the viability, T/C (second compound 0.316 µM, first compound 0.00999 µM) of the same molecule?
A: 99.1%

Q: And the viability, T/C (second compound 0.316 µM, first compound 0.0316 µM)?
A: 84.6%

Q: And the viability, T/C (second compound 0.316 µM, first compound 0.0999 µM)?
A: 83%

Q: And the viability, T/C (second compound 0.316 µM, first compound 0.316 µM)?
A: 109%

Q: What about the viability, T/C (second compound 1 µM, first compound 0.000999 µM) of the same molecule?
A: 75.3%

Q: What about the viability, T/C (second compound 1 µM, first compound 0.00316 µM) of the same molecule?
A: 68.4%

Q: And the viability, T/C (second compound 1 µM, first compound 0.00999 µM)?
A: 82.2%

Q: What about the viability, T/C (second compound 1 µM, first compound 0.0316 µM) of the same molecule?
A: 63.5%

Q: What about the viability, T/C (second compound 1 µM, first compound 0.0999 µM) of the same molecule?
A: 88.9%

Q: What about the viability, T/C (second compound 1 µM, first compound 0.316 µM) of the same molecule?
A: 119%

Q: What about the viability, T/C (second compound 3.16 µM, first compound 0.000999 µM) of the same molecule?
A: 104%

Q: And the viability, T/C (second compound 3.16 µM, first compound 0.00316 µM)?
A: 97.8%

Q: And the viability, T/C (second compound 3.16 µM, first compound 0.00999 µM)?
A: 78.6%

Q: And the viability, T/C (second compound 3.16 µM, first compound 0.0316 µM)?
A: 63.2%

Q: What about the viability, T/C (second compound 3.16 µM, first compound 0.0999 µM) of the same molecule?
A: 54.8%

Q: And the viability, T/C (second compound 3.16 µM, first compound 0.316 µM)?
A: 91.9%

Q: What about the viability, T/C (second compound 10 µM, first compound 0.000999 µM) of the same molecule?
A: 89.9%

Q: And the viability, T/C (second compound 10 µM, first compound 0.00316 µM)?
A: 57.5%

Q: What about the viability, T/C (second compound 10 µM, first compound 0.00999 µM) of the same molecule?
A: 82.4%

Q: What about the viability, T/C (second compound 10 µM, first compound 0.0316 µM) of the same molecule?
A: 79.6%

Q: And the viability, T/C (second compound 10 µM, first compound 0.0999 µM)?
A: 67.5%

Q: What about the viability, T/C (second compound 10 µM, first compound 0.316 µM) of the same molecule?
A: 65.7%

Q: CCc1c2c(nc3ccc(O)cc13)-c1cc3c(c(=O)n1C2)COC(=O)[C@]3(O)CC was tested. Which viability, T/C (compound 0.000999 µM) did it give?
A: 95% and 84%

Q: And the viability, T/C (compound 0.00316 µM)?
A: 74.7% and 67.6%

Q: And the viability, T/C (compound 0.00999 µM)?
A: 43.7% and 57.5%

Q: What about the viability, T/C (compound 0.0316 µM) of the same molecule?
A: 68.9% and 65.7%

Q: And the viability, T/C (compound 0.0999 µM)?
A: 89.6% and 60.6%

Q: What about the viability, T/C (compound 0.316 µM) of the same molecule?
A: 64.6% and 78.9%

Q: What about the IC50 (curve of compound) of the same molecule?
A: > 316 nM

Q: Which results are given for Cc1cccc(N(C)C(=O)C2C(O)CCN2c2nc(C)cc(C(F)(F)F)c2C#N)c1 (stereo unspecified)?
A: viability, T/C (compound 0.0316 µM): 110% and 112%; viability, T/C (compound 0.1 µM): 88.1% and 75.7%; viability, T/C (compound 0.316 µM): 95.8% and 74.5%; viability, T/C (compound 1 µM): 111% and 116%; viability, T/C (compound 3.16 µM): 106% and 101%; viability, T/C (compound 10 µM): 93.9% and 80.4%; IC50 (curve of compound): > 10000 nM
